Assay results as given in patent US20110178104A1, “Anti-Heparin Compounds” (POLYMEDIX INC., priority 2010, published 2011).
Converted amounts (≈) assume the structure as drawn. “And” between values parts separate entries of the source, which are not always exact repeats. Equal values may be shown once.

Experiments:
enoxaparin [1] = experiment: FXa amidolytic assay in human plasma, enoxaparin; format: biochemical; conditions: enoxaparin 10 μg/mL, at a concentration of about 50 μg/mL
[2] = system: unfractionated heparin (UFH); experiment: aPTT clotting assay, UFH 0.2 U/mL in plasma (Example 7); format: biochemical; conditions: UFH 0.2 U/mL in plasma
Method: (§1) aPTT clotting Assay. Unfractionated heparin was mixed with plasma at a final concentration of 0.2 U/mL. […] The ACL Elite Hemostasis analyzer (Beckman Coulter™) was used to add aPTT reagent (HemosIL SynthASil) to supplemented plasma. Clotting was initiated by addition of CaCl2 and time to clot was recorded.

enoxaparin (ENOX) = experiment: FXa chromogenic assay (absence of plasma), enoxaparin; conditions: enoxaparin 0.1 μg/mL, absence of plasma
fondaparinux (FONDAPX) = experiment: FXa chromogenic assay (absence of plasma), fondaparinux; conditions: fondaparinux 0.02 μg/mL, absence of plasma
fondaparinux [3] = experiment: FXa amidolytic assay (Example 10), fondaparinux; conditions: for EC50: read-out: Fondap FXa EC50, fondaparinux 0.02 μg/mL, human antithrombin, bovine Factor Xa
Method: (§3) Two μl of test agent are added (range between 0.01 and 23 ug/ml) and incubated for 5 minutes at 23° C. Bovine Factor Xa was added to a final concentration of 0.636 nkat/mL and incubated for a further 10 minutes at 23° C.

enoxaparin [4] = experiment: FXa amidolytic assay (Example 10), enoxaparin; conditions: read-out: Enox FXa EC50; enoxaparin 0.1 ug/ml; human antithrombin, bovine Factor Xa
Method: as §3

[5] = system: isolated human erythrocytes; experiment: in vitro; format: cell-based
How it was run: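 Test agent was serially diluted two-fold over 0.48–1000 µg/ml and incubated for 1 h at 37 °C with shaking, using erythrocytes from pooled human blood diluted in Tris-buffered saline pH 7.4 (0.22% stock). Hemolysis was measured as supernatant absorbance at 405 nm. A four-parameter logistic equation gave EC50, and melittin served as the positive control.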

tinzaparin = experiment: FXa amidolytic assay (Example 10), tinzaparin; conditions: read-out: Tinzap FXa EC50; tinzaparin 0.1 ug/ml; human antithrombin, bovine Factor Xa
Method: as §3

[6] = Cytotoxicity colorimetric assay, HepG2; format: cell-based, human; set-up: Cytotoxicity HepG2, percent printed in parentheses after the concentration: concentration or dose not given beside the values; conditions: human, HepG2 cells, one hour in serum-free media
How it was run: (§2)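 HepG2 cells (3×10^4/well, MEM + 10% FBS) and NIH/3T3 cells (2×10^4/well, DMEM + 10% BCS) were exposed to compound for 1 h in serum-free medium. Viability read by tetrazolium-to-formazan bioreduction after return to serum medium; EC50 from a four-parameter logistic fit.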

HepG2 cells = experiment: Cytotoxicity colorimetric assay, HepG2; format: cell-based, human; set-up: Cytotoxicity HepG2, percent printed in parentheses after the concentration: concentration or dose not given beside the values; conditions: for Cytotoxicity HepG2 EC50: one hour in serum-free media; for Cytotoxicity HepG2, percent printed in parentheses after the concentration: at the concentration given
How it was run: as §2

[7] = Cytotoxicity colorimetric assay, NIH/3T3; format: cell-based, mouse; conditions: mouse, NIH/3T3 cells, one hour in serum-free media
How it was run: as §2

NIH/3T3 cells = experiment: Cytotoxicity colorimetric assay, NIH/3T3; format: cell-based, mouse; conditions: for Cytotoxicity 3T3 EC50: one hour in serum-free media; for Cytotoxicity 3T3, percent printed in parentheses after the concentration: at the concentration given
How it was run: as §2

[8] = Coagulation properties via ROTEM; conditions: at fully efficacious doses
enoxaparin [9] = experiment: Enoxaparin-extended bleeding times, rat tail transection model; format: in vivo; conditions: for neutralization of prolonged bleeding times: rat, enoxaparin 2 mg/kg IV
Method: Studies have now been done to examine effects on extended bleeding times caused by enoxaparin treatment. Male Sprague Dawley rats (Charles River) were administered 2 mg/kg enoxaparin by IV injection in the tail vein, followed 3 minutes later by test agent (IV, tail vein) at 2 and 5 mg/kg doses. Tails were then rapidly transected and bleeding time onto an absorbant pad was determined. Enoxaparin alone (no antagonist) extends bleeding time from 11 to 24 seconds.

UFH = experiment: FXa amidolytic assay (Example 10), UFH; conditions: read-out: Heparin FXa uM EC50; UFH 0.03 units/mL; human antithrombin, bovine Factor Xa
Method: as §3

Unfractionated heparin = experiment: aPTT clotting assay, UFH 0.4 U/mL in plasma (Example 10); format: biochemical; conditions: unfractionated heparin 0.4 U/mL in plasma; aPTT clotting
Method: as §1, with “Assay:” for “Assay.”, “0.4 U/mL (or concentration which increases aPTT time to between 120 and 300 seconds).” for “0.2 U/mL.”

blood pressure = experiment: Hemodynamic responses in the anesthetized rat; format: in vivo; conditions: for hemodynamic response profile: anesthetized rat, 8 or 16 mg/kg 10 minute IV infusion after heparin 50 U/kg; for hemodynamic liabilities (summary): rat, in vivo
Excerpt: As a key safety issue for cationic compounds is reduction in blood pressure shortly after administration. To address this hemodynamic issue, a medicinal chemistry strategy with literature precedence of introducing carboxylic acid functionality was applied to the salicylamide series of compounds. […] Surgically prepared animals were purchased from Charles River Laboratories, Raleigh, N.C. Animals were anesthetized on the day of experiment with isoflurane (1.8-4%). Blood pressure and heart rate data were collected on a Grass Polygraph recorder. The test articles, vehicle or protamine dosing preparations were administered once to each rat by a 10 minute intravenous infusion three minutes following a single intravenous injection of heparin (50 U/kg). Each animal received a dose volume of 2.0 mL/kg. Blood pressure was recorded prior to treatment for approximately 1 minute and immediately following heparin, immediately following vehicle, test articles or protamine and at 5, 15, 30, and 60 minutes following dosing. The doses of test agent were either 8 mg/kg or 16 mg/kg. The differences in hemodynamic effect at 16 mg/kg were especially profound (FIG. 5).

enoxaparin [10] = experiment: In vivo neutralization of enoxaparin in the rat; conditions: for in vivo efficacy versus LMWH by anti-factor Xa activity (summary): compared with protamine; for neutralization of enoxaparin (aPTT and factor Xa assays, words): rat, enoxaparin 2 mg/kg IV
Method: Compounds were tested for their ability to neutralize enoxaparin coagulation inhibition in rats. Male Sprague-Dawley rats were used in this study (Charles River Laboratories). They were ten-weeks-old at the start of the study and their weights ranged from 319-362 g. Enoxaparin (2 mg/kg) was administered by IV injection to groups of six rats. After 3 min, saline, protamine or a test compound was administered by IV injection. Blood was collected before dosing with enoxaparin, and at 1, 3, 10, 30 and 60 min after dosing with the standard and test compounds. All treatments were dosed in a volume of 1 mL/kg. Blood was collected via the orbital sinus from three rats per group. At each time point, 1 mL of blood was collected from each animal into a single tube. The blood was analyzed using an AMEX Destiny Plus Coagulation Analyzer for activated partial thromboplastin time (APTT) and anti-Factor Xa (low-molecular weight).

fondaparinux [11] = experiment: In vivo neutralization of fondaparinux in the rat; conditions: for reduction of Factor Xa (anti-factor Xa) levels after fondaparinux: fondaparinux 0.5 mg/kg IV, test agent 2 and 5 mg/kg IV
Method: Compounds were selected to test fondaparinux neutralization in vivo. Rats were pre-treated with fondaparinux administered by IV injection at 0.5 mg/kg. The rats were then treated with a single IV injection of saline, protamine or the PMX compound. Blood was collected via the orbital sinus from three rats per group at the following time points: pre-dose, 1, 3, 10, 30 and 60 min. Plasma samples were prepared for analysis of anti-factor Xa activity using an AMEX Destiny Plus Coagulation Analyzer.

| SMILES | Potent LMWH-antagonists with superior anti-fondaparinux activity (summary) (fondaparinux [3]) | EC50 (fondaparinux [3]) | EC50 (enoxaparin [4]) | hemolysis and cytotoxicity (summary) [5] | EC50 (tinzaparin) | EC50 at 1 h [6] [µg/mL] | Cytotoxicity HepG2 EC50 (HepG2 cells) [µg/mL] | EC50 at 1 h [7] [µg/mL] | Cytotoxicity 3T3 EC50 (NIH/3T3 cells) [µg/mL] | coagulation properties via ROTEM [8] | neutralization of prolonged bleeding times (enoxaparin [9]; test agent 5 mg/kg IV) | EC50 (UFH) | EC50 (Unfractionated heparin) | hemodynamic response profile (blood pressure) | hemodynamic liabilities (summary) (blood pressure) | in vivo efficacy versus LMWH by anti-factor Xa activity (summary) (enoxaparin [10]) | neutralization of enoxaparin (aPTT and factor Xa assays, words) (enoxaparin [10]) | reduction of Factor Xa (anti-factor Xa) levels after fondaparinux (fondaparinux [11]) | Cytotoxicity HepG2, percent printed in parentheses after the concentration (HepG2 cells) [%] | Cytotoxicity 3T3, percent printed in parentheses after the concentration (NIH/3T3 cells) [%] | further results |
| --- | --- | --- | --- | --- | --- | --- | --- | --- | --- | --- | --- | --- | --- | --- | --- | --- | --- | --- | --- | --- | --- |
| COc1ccc(NC(=O)[C@@H](CCCNC(=N)N)NC(=O)c2cc(NC(=O)[C@@H](CCCNC(=N)N)NC(=O)c3cc(NC(=O)[C@@H](CCCNC(=N)N)NC(=O)c4cc(NC(=O)[C@@H](C)N)ccc4OC)ccc3OC)ccc2OC)cc1C(N)=O [Compound 16] | – | – | – | – | – | – | – | – | – | – | – | – | – | – | – | – | – | – | – | – | percent of the anticoagulant effect of enoxaparin inhibited (FXa amidolytic) (enoxaparin [1]): about 20%; UFH (aPTT) EC50 [2]: 2.41 µg/mL; ENOX (FXa) EC50 (enoxaparin (ENOX)): 0.32 µg/mL; FONDAPX (FXa) EC50 (fondaparinux (FONDAPX)): 1.22 µg/mL |
| COc1ccc(NC(=O)[C@H](CCCCN)NC(=O)c2cc(NC(=O)[C@H](CCCCN)NC(=O)c3cc(NC(=O)[C@H](CCCCN)NC(=O)c4cc(NC(=O)[C@@H](N)CCCCN)ccc4OC)ccc3OC)ccc2OC)cc1C(=O)N[C@@H](Cc1c[nH]c2ccccc12)C(=O)O [Compound 266] | superior anti-fondaparinux activity | 214 nM and 265 nM and 368 nM | 122 nM and 162 nM and 164 nM | non-hemolytic and low cytotoxicity | 122 nM and 151 nM and 121 nM | 534 (≈ 407 µM) | >1000 | 838 (≈ 638 µM) | 848 | normal coagulation properties at fully efficacious doses | incomplete neutralization | 0.21 µM and 0.247 µM | 2440 nM and 1840 nM and 3480 nM | superior to protamine | reduced hemodynamic liabilities | superior to protamine | completely neutralizes enoxaparin within minutes | effective at the higher 5 mg/kg dose | – | – | EC50 ([5]; Homo sapiens, Erythrocyte, 1 h, human RBC, 1 hour at 37° C., read-out: Hemolysis EC50): > 1000 µg/mL |
| COc1ccc(NC(=O)[C@@H](CCCNC(=N)N)NC(=O)c2cc(NC(=O)[C@@H](CCCNC(=N)N)NC(=O)c3cc(NC(=O)[C@@H](CCCNC(=N)N)NC(=O)c4cc(NC(=O)[C@H](N)CCCNC(=N)N)ccc4OC)ccc3OC)ccc2OCC(=O)O)cc1C(=O)N[C@H](Cc1c[nH]c2ccccc12)C(N)=O [Compound 305] | superior anti-fondaparinux activity | – | 186 nM | non-hemolytic and low cytotoxicity | – | 1000 (≈ 681 µM) | >1000 | 1000 (≈ 681 µM) | >1000 | normal coagulation properties at fully efficacious doses | – | 0.343 µM | – | superior to protamine | reduced hemodynamic liabilities | superior to protamine | marginally more efficacious than the 3-Arg derivative | effective in reducing Factor Xa activity | 50 | 50 | in vivo efficacy versus LMWH by bleeding time (summary) (enoxaparin [9]; compared with protamine): superior to protamine; neutralization of prolonged bleeding times (enoxaparin [9]; test agent 2 mg/kg IV): completely neutralized; in vivo efficacy versus fondaparinux (summary) (fondaparinux [11]): in vivo efficacy versus fondaparinux |
| COc1ccc(NC(=O)[C@H](CCCNC(=N)N)NC(=O)c2cc(NC(=O)[C@H](CCCNC(=N)N)NC(=O)c3cc(NC(=O)[C@H](CCCNC(=N)N)NC(=O)c4cc(NC(=O)[C@@H](N)CCCNC(=N)N)ccc4OC)ccc3OC)ccc2OCC(=O)O)cc1C(=O)N[C@@H](Cc1c[nH]c2ccccc12)C(N)=O [Compound 311] | superior anti-fondaparinux activity | 90 nM and 154 nM | 101 nM and 140 nM | non-hemolytic and low cytotoxicity | 108 nM and 150 nM | 1000 (≈ 681 µM) | >1000 | 1000 (≈ 681 µM) | >1000 | normal coagulation properties at fully efficacious doses | – | 0.245 µM | 2540 nM and 1780 nM | – | – | – | marginally more efficacious than the 3-Arg derivative | markedly reduced | 50 | 50 | in vivo efficacy versus fondaparinux (summary) (fondaparinux [11]): in vivo efficacy versus fondaparinux |
| COc1cc(OC)c(C(=O)N[C@H]2CC[C@H](NC(=O)c3cc(C(=O)NCCN(C)C)c(OCCCCCNC(=N)N)cc3OCCCCCNC(=N)N)CC2)cc1C(=O)N[C@H]1CC[C@H](NC(=O)c2cc(C(=O)NCCN(C)C)c(OCCCCCNC(=N)N)cc2OCCCCCNC(=N)N)CC1 [Compound B] | superior anti-fondaparinux activity | – | – | non-hemolytic and low cytotoxicity | – | – | – | – | – | normal coagulation properties at fully efficacious doses | not completely reverse | – | – | – | reduced hemodynamic liabilities | superior to protamine | – | lack of effectiveness | – | – | – |
